5 compounds from patent US20230286970A1, “NOVEL OXADIAZOLE-BASED SELECTIVE HDAC6 INHIBITORS” (ITALFARMACO S.P.A., priority 2020, published 2023) can be followed below.

The structures appear in SMILES notation.

Data set [1] addresses HDAC5 (Homo sapiens (Human), UniProt Q9UQL6). The experiment in a line: Enzymatic screening, HDAC5 inhibition. Format: biochemical. How it is done:
(§1) For each test compound, 100× concentrated DMSO solutions at 8 doses were prepared and then diluted in assay buffer (25 mM Tris-HCl, pH 8, 130 mM NaCl, 0.05% Tween-20, 10% Glycerol) to obtain 5× concentrated solutions in relation to the final concentrations (typical final concentration range—6.4-200000 nM or 0.18-50000 nM, final DMSO content—1%). Then 10 μL solution of each test compound concentration were placed on a 96-well plate in triplicate and 15 μL of 3.33× concentrated enzyme solution in the assay buffer containing 3.33× concentrated BSA (final BSA concentration—2 mg/mL for HDAC4, HDAC5 and HDAC9 or 1 mg/mL for other isoforms) and in the case of HDAC6-3.33× concentrated TCEP (final TCEP concentration—200 μM) were added to each well. After a period of preincubation (incubation times and temperatures vary for different isoforms and are shown in table 1) 25 μL of solution containing the substrate were added. As substrate, FLUOR DE LYS® deacetylase substrate (Enzo Life Sciences, cat: BML-KI104, FdL), FLUOR DE LYS®-Green substrate (Enzo Life Sciences, cat: BML-KI572, FdL_G) or Boc-Lys(Tfa)-AMC (Bachem, cat: 4060676.005, Tfal)—2× concentrated solution in assay buffer were used. Following a reaction period (reaction times and temperatures vary for different isoforms and are reported in Table 1), 50 μL of the development solution consisting of concentrate FLUOR DE LYS® developer I (Enzo Life Sciences, ca: BML-KI105), diluted 200 times in buffer (50 mM Tris-HCl, pH 8, 137 mM NaCl, 2.7 mM KCl, 1 mM MgCl2) plus 2 μM TSA was added and, after 25 minutes at room temperature in the dark, using the Victor 1420 Multilabel Counter Perkin Elmer Wallac instrument, the fluorescence reading was carried out.

Data set [2] addresses recombinant human HDAC1 (Homo sapiens (Human), UniProt Q13547). Description: Enzymatic screening, HDAC1 inhibition (fluorogenic FdL_G substrate). The class given is biochemical. The essentials: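 Recombinant human HDAC1 inhibition was measured fluorometrically using the FLUOR DE LYS-Green (FdL_G) substrate. Compounds at 8 doses (1% DMSO final) in Tris-HCl pH 8 buffer with NaCl, Tween-20 and glycerol were preincubated in triplicate with enzyme and 1 mg/mL BSA, then given substrate. Developer I plus 2 μM TSA was added, and fluorescence read after 25 minutes in the dark.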

Data set [3] has as its target HDAC9 (Homo sapiens (Human), UniProt Q9UKV0). The experiment in a line: Enzymatic screening, HDAC9 inhibition. Format: biochemical. Here is the method: as §1
The nature of data set [4]: Stability in rat plasma. As to conditions: after 4 hours, 37° C.
Description: In order to evaluate the stability to circulating enzymes, test compounds were incubated in human and rat plasma at 37° C. in a thermostated oscillating bath. Each test compound was incubated at μM concentration (50 μM when the samples were analysed by UV/HPLC, 1 or 2 μM when the samples were analysed by LC-MS/MS) for 0, 15, 30 minutes and 1, 2 and 4 hours. The reaction was stopped placing samples on ice bath and adding acidified acetonitrile. After centrifugation (10 minutes at 14000 rpm) an aliquot of the supernatant was diluted with water, filtered with 0.45 μm regenerated cellulose syringe filters and injected in HPLC-UV or in LC-MS/MS. The percentage of the remaining amount at the various incubation times with respect to the initial amount were calculated. The half-life in plasma was also calculated.
In data set [5] the target is HDAC10 (Homo sapiens (Human), UniProt Q969S8). The experiment in a line: Enzymatic screening, HDAC10 inhibition. Format: biochemical. How it is done:
as §1

Data set [6] is described as follows: Stability to Phase I metabolism in rat S9 liver fraction. As to conditions: after 90 minutes, 37° C.
Data set [7] addresses HDAC7 (Homo sapiens (Human), UniProt Q8WUI4). Description: Enzymatic screening, HDAC7 inhibition. Format: biochemical. Here is the method: as §1
Data set [8] has as its target recombinant human HDAC6 (Homo sapiens (Human), UniProt Q9UBN7). Description: Enzymatic screening, HDAC6 inhibition (fluorogenic FdL_G substrate). Format: biochemical. The essentials:
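Enzyme was preincubated with compound (8 doses, triplicate, 1% DMSO) in 25 mM Tris-HCl pH 8, 130 mM NaCl, 0.05% Tween-20, 10% glycerol, with BSA. A FLUOR DE LYS-Green substrate was then added, and fluorescence was read after developer plus 2 μM TSA.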

In data set [9] the target is HDAC2 (Homo sapiens (Human), UniProt Q92769). Description: Enzymatic screening, HDAC2 inhibition. The class given is biochemical. Here is the method:
as §1

Data set [10] addresses HDAC4 (Homo sapiens (Human), UniProt P56524). Description: Enzymatic screening, HDAC4 inhibition. The class given is biochemical. Here is the method:
as §1

Data set [11] has as its target HDAC3 (Homo sapiens (Human), UniProt O15379). The experiment in a line: Enzymatic screening, HDAC3 inhibition. The class given is biochemical. How it is done: as §1
Data set [12] deals with HDAC8 (Homo sapiens (Human), UniProt Q9BY41). Description: Enzymatic screening, HDAC8 inhibition. The class given is biochemical. Here is the method: as §1
Chain of HDAC8 (Q9BY41 whole entry): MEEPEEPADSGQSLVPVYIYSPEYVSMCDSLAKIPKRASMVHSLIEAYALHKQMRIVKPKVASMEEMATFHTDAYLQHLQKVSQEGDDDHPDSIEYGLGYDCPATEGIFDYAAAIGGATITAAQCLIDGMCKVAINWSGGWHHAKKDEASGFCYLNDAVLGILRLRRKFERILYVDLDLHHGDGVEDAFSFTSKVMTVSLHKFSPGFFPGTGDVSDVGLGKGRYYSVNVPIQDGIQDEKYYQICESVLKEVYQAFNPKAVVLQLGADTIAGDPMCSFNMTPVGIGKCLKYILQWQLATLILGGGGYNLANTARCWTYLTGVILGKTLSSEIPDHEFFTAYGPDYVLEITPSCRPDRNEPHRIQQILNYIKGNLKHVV
The nature of data set [13]: Stability to Phase I metabolism in human S9 liver fraction. The note with it: after 90 minutes, 37° C.
Data set [14] deals with HDAC11 (Homo sapiens (Human), UniProt Q96DB2). The experiment in a line: Enzymatic screening, HDAC11 inhibition. Format: biochemical. Here is the method: as §1
Chain of HDAC11 (Q96DB2 whole entry): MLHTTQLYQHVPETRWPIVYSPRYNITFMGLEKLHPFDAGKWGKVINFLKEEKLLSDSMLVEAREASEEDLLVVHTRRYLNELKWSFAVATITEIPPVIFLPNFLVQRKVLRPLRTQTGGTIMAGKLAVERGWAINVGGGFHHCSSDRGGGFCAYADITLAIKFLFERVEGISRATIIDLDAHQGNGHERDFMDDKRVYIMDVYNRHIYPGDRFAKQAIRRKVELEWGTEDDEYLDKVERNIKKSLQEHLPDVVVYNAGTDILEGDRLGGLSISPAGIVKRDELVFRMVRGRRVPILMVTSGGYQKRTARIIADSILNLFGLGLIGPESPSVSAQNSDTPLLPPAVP
Data set [15] can be described thus: Stability in human plasma. As to conditions: after 4 hours, 37° C.
Data set [16] has as its system α-tubulin acetylation in 697 cell line. Description: In vitro α-tubulin acetylation in 697 cell line (ELISA). The class given is cell-based. As to conditions: 16 hours, read-out: fold increase @ 1 uM TubAc (ratio of acetylated tubulin and total tubulin towards control). Here is the method:
The in vitro α-tubulin acetylation determination was evaluated on B 697 promyelocytic cell line.
The test molecules were diluted from 20 mM stock solution in DMSO with RPMI 10% FCS+0.01% DMSO medium at 20× concentration compared to the final concentration, added to the cells (15×10^6 cells in a total volume of 30 mL in RPMI medium 10% FCS+0.01% DMSO) to obtain the final concentrations of 1000, 333, 111, 37 nM and incubated at 37° C., 5% CO2 for 16 hours.
At the end of the incubation period, 5×10^6 cells were taken from each sample, centrifuged for 5 minutes at 1100 rpm and washed in 0.9% NaCl at 4° C. The resulting pellet was lysed by treating at 4° C. for 30 minutes with 150 μl of Complete Lysis-M buffer containing protease inhibitors (Complete Lysis-M Roche+Complete Tablets, Mini Easypack, cat: 4719956001) and phosphatase inhibitor cocktails (PhosStop Easypack, Roche, cat: 4906837001), then centrifuged 10 minutes at 14,000 rpm (20817×g). 0.3 μg of supernatant (total protein extract) were diluted in 100 μl of 1×PBS and immobilized in Maxisorp F96 NUN-IMMUNO Plate (Nunc MaxiSorp flat-bottom, Nunc, cat: 442404) at room temperature overnight. Plates were washed twice with Wash Buffer (PBS1×+0.005% tween 20) and saturated for 1 hour at room temperature with 300 μL of 1×PBS containing 10% FCS. After washing twice with Wash Buffer, the plates were incubated for two hours at room temperature in the presence of anti-acetylated-α-tubulin antibody (Monoclonal Anti-acetylated-tubulin clone 6-11B-1, mouse ascites fluid, Sigma, cat: T6793), 100 μl/well diluted 1:1000 in 1×PBS containing 10% FCS) or with total anti-α-tubulin antibody (Monoclonal Anti-alpha-tubulin produced in mouse, Sigma, cat: T6074). Following washing of the pates 5 times with Wash Buffer the secondary antibody conjugated with the enzyme HRP (Goat anti-Mouse IgG, IgM, IgA (H+L), Thermo Fisher Scientific, cat: A10668), diluted 1:1000 in 1×PBS+10% FBS was added at the volume of 100 μl/well.
After washing 4 times, 100 μl/well of TMB substrate kit was added for 10 minutes at room temperature in the dark. The reaction was stopped by adding 50 μl of 2N H2SO4. The plates were read at Multiskan Spectrum spectrophotometer at a wavelength of 450 nm.
The degree of acetylation was calculated by dividing the absorbance obtained for acetylated α-tubulin by the absorbance of total tubulin.
The results of tubulin acetylation, expressed as fold increase of ratio of acetylated α-tubulin/total α-tubulin, of each sample relative to the control sample (untreated) are summarized in table 6.
Background: An ELISA detects its analyte on a solid surface through an enzyme-linked reagent.

Chain of HDAC4 (P56524 whole entry): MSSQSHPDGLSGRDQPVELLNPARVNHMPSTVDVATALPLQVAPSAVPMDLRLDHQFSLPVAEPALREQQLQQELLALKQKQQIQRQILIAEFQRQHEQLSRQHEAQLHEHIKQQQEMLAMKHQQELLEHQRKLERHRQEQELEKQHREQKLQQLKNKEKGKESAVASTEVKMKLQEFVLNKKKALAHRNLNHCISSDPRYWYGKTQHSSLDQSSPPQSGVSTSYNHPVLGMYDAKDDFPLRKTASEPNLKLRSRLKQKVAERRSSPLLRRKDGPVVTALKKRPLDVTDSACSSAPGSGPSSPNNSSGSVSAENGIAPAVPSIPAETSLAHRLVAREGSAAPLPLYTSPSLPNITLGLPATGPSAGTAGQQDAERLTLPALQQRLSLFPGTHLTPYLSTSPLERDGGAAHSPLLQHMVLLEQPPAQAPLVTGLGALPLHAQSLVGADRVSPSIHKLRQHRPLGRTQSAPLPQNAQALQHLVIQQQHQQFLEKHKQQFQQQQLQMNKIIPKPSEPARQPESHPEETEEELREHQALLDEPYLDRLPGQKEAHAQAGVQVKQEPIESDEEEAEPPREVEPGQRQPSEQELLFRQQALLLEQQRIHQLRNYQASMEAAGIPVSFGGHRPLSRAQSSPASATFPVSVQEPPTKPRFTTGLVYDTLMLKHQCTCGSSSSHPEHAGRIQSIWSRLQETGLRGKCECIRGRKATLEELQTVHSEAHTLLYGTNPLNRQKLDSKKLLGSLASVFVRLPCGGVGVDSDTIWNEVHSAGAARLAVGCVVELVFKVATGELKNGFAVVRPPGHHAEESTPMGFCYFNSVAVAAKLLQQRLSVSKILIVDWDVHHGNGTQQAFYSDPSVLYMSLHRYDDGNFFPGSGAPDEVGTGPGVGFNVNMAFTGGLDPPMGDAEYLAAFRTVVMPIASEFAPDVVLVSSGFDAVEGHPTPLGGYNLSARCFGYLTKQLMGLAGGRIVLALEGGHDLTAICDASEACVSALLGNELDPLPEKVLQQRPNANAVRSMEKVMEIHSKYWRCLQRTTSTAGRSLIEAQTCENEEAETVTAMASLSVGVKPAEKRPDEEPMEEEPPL
Chain of HDAC7 (Q8WUI4 whole entry): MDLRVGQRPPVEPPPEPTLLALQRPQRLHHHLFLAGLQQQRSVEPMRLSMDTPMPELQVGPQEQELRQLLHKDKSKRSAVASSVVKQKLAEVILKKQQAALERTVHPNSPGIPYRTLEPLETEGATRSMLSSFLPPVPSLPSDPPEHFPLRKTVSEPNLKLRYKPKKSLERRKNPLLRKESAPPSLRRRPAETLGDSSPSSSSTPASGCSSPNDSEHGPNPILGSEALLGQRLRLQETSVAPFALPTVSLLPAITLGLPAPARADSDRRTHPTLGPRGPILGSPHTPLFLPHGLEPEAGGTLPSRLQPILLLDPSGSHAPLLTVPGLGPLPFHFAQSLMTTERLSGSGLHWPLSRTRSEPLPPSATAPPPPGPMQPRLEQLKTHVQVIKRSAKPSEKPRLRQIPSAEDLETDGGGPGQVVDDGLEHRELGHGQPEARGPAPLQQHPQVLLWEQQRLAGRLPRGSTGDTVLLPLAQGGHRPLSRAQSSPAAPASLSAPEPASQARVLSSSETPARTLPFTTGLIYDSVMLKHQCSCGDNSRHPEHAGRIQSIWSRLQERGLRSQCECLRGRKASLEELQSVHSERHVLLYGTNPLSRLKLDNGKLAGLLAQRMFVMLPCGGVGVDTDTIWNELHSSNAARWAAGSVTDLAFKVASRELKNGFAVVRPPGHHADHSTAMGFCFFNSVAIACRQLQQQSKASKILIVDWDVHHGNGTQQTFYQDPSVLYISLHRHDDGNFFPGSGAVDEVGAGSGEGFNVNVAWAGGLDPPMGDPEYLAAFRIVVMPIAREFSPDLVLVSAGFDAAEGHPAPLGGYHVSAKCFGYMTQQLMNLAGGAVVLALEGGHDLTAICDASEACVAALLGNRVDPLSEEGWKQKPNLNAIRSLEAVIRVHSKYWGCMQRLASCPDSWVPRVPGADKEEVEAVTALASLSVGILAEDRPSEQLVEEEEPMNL
Chain of recombinant human HDAC1 (Q13547 whole entry): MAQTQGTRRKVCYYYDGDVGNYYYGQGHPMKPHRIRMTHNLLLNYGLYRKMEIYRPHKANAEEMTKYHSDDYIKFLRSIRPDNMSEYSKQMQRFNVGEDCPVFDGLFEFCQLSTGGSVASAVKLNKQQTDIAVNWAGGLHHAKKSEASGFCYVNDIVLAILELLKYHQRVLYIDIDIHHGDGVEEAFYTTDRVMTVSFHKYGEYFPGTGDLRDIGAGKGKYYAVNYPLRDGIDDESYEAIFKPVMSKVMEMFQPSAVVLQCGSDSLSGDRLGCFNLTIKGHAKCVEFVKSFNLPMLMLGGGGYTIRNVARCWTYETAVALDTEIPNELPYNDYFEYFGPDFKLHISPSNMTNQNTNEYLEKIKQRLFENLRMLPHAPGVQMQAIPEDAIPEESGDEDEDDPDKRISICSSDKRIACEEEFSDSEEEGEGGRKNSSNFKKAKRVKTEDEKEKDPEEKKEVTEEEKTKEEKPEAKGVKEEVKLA
Chain of recombinant human HDAC6 (Q9UBN7 whole entry): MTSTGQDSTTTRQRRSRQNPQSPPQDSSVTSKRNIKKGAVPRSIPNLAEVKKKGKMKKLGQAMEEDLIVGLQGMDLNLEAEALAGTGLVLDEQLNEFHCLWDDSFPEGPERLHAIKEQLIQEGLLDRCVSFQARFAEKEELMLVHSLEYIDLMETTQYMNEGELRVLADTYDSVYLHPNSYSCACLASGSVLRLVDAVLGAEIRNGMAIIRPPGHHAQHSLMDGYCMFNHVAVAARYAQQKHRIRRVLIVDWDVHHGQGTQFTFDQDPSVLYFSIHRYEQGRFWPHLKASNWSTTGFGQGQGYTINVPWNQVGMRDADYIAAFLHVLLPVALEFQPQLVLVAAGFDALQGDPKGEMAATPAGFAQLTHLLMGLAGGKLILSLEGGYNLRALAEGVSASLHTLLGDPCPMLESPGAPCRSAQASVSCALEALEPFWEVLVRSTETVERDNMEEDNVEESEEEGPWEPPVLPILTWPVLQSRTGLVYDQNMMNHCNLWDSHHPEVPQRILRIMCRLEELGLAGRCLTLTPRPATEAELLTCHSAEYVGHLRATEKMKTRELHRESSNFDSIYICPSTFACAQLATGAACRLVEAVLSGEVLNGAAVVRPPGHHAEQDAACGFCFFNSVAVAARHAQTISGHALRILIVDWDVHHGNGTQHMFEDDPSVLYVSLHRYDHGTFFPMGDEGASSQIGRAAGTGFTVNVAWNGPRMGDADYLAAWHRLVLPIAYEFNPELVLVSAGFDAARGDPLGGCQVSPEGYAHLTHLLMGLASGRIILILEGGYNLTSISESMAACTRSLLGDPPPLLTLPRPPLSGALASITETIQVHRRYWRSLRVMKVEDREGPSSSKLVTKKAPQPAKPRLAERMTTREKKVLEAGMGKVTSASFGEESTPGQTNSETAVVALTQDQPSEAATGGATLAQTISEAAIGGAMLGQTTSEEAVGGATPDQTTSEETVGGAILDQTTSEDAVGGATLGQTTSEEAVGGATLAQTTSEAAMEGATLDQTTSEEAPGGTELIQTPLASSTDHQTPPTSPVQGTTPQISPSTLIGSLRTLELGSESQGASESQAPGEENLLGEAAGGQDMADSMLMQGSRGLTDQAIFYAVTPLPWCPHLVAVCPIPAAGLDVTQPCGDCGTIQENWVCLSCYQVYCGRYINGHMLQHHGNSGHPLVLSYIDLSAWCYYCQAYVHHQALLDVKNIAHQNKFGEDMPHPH
Chain of HDAC3 (O15379 whole entry): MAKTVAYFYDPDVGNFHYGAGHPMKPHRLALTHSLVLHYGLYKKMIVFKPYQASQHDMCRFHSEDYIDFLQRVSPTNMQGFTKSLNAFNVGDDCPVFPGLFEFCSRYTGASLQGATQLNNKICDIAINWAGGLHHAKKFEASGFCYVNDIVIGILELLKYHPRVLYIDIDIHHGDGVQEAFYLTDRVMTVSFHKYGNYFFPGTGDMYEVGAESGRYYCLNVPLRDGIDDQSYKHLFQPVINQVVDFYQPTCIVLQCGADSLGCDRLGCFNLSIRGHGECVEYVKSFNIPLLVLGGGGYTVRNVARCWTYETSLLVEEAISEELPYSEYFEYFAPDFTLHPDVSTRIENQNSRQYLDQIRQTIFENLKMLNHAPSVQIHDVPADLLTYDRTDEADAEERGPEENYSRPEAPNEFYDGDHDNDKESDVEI
Chain of HDAC3 (Q9Y618 395-489 partner): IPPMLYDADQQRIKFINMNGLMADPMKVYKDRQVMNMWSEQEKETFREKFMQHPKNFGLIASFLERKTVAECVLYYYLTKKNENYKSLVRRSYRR

On to `Nc1nc2ccc(-c3cn(Cc4ccc(-c5nnc(C(F)F)o5)cn4)nn3)cc2s1` [Compd. 1, 6-(1-((5-(5-(difluoromethyl)-1,3,4-oxadiazol-2-yl)pyridin-2-yl)methyl)-1H-1,2,3-triazol-4-yl)benzo[d]thiazol-2-amine], for which the IC50 (as a rule, the concentration that inhibits the measured activity by half) in [1] was > 30 µM; in [2], > 200 µM; in data set [3], > 30 µM; in data set [5], > 30 µM; in [7] it was > 30 µM; in data set [8], 0.007 µM. Moreover, the half-inhibitory concentration (IC50) in [9] was > 30 µM; in [10], > 30 µM; in data set [11] it was > 30 µM; in data set [12], > 200 µM; in data set [14], > 30 µM. For the same compound, the “residual percentage in RAT PLASMA” value in [4] was determined as 79%. Further, in [6], the “residual percentage in RAT S9 FRACTION” value came out at 96%. In addition, the “residual percentage in HUMAN S9 FRACTION” value in data set [13] was 93%. The “residual percentage in HUMAN PLASMA” value in data set [15] amounted to 85%. Moreover, in data set [16], the fold induction at 1 µM was determined as 25.

As for `Nc1nc2cc(-c3cn(Cc4ccc(-c5nnc(C(F)F)o5)cn4)nn3)ccc2s1` [Compd. 3, 5-(1-((5-(5-(difluoromethyl)-1,3,4-oxadiazol-2-yl)pyridin-2-yl)methyl)-1H-1,2,3-triazol-4-yl)benzo[d]thiazol-2-amine], the half-maximal inhibitory concentration (IC50) was > 30 µM in data set [1]; > 200 µM in data set [2]; 22.5 µM in data set [3]; > 30 µM in data set [5]; > 30 µM in [7]; 0.01 µM in data set [8]. In addition, the IC50 in data set [9] is > 30 µM; in [10] it was > 30 µM; in data set [11], > 30 µM; in data set [12], > 200 µM; in data set [14] it was > 30 µM. For the same compound, in [4], the “residual percentage in RAT PLASMA” value worked out at 80%. The “residual percentage in RAT S9 FRACTION” value in data set [6] was 90%. In addition, the “residual percentage in HUMAN S9 FRACTION” value in [13] came to 97%. Besides, the “residual percentage in HUMAN PLASMA” value in data set [15] worked out at 70%. Besides, the fold induction at 1 µM in data set [16] was found to be 13.

With `Nc1nc2cc(-c3cn(Cc4ccc(-c5nnc(C(F)F)o5)cc4)nn3)ccc2[nH]1` [Compd. 8, 5-(1-(4-(5-(difluoromethyl)-1,3,4-oxadiazol-2-yl)benzyl)-1H-1,2,3-triazol-4-yl)-1H-benzo[d]imidazol-2-amine], the IC50 was > 30 µM in data set [1]; > 200 µM in data set [2]; > 30 µM in data set [3]; > 30 µM in [5]; > 30 µM in [7]; 0.014 µM in data set [8]. Further, the concentration for half-maximal inhibition (IC50) in [9] is > 30 µM; in data set [10], > 30 µM; in data set [11], > 30 µM; in [12], > 200 µM; in data set [14] it was > 30 µM. For the same compound, the “residual percentage in RAT PLASMA” value in [4] stood at 76%. In addition, in [6], the “residual percentage in RAT S9 FRACTION” value is recorded as 94%. The “residual percentage in HUMAN S9 FRACTION” value in data set [13] came to 95%. Moreover, the “residual percentage in HUMAN PLASMA” value in data set [15] stood at 99%. The fold induction at 1 µM in data set [16] is 10.

With `FC(F)c1nnc(-c2ccc(Cn3cc(-c4ccc5nc(Cl)[nH]c5c4)nn3)nc2)o1` [Compd. 9, 2-(6-((4-(2-chloro-1H-benzo[d]imidazol-6-yl)-1H-1,2,3-triazol-1-yl)methyl)pyridin-3-yl)-5-(difluoromethyl)-1,3,4-oxadiazole], the IC50 in [1] was 1.51 µM; in data set [2], > 200 µM; in [3], 0.971 µM; in [5] it was > 30 µM; in [7], 3.08 µM; in data set [8], 0.015 µM. Besides, the half-maximal inhibitory concentration (IC50) is > 30 µM in data set [9]; 5.01 µM in data set [10]; > 30 µM in data set [11]; 1.41 µM in data set [12]; > 30 µM in data set [14]. Moreover, the “residual percentage in RAT PLASMA” value in data set [4] came out at 87%. In data set [6], the “residual percentage in RAT S9 FRACTION” value came to 90%. Also, the “residual percentage in HUMAN S9 FRACTION” value in data set [13] came to 83%. Moreover, the “residual percentage in HUMAN PLASMA” value in data set [15] is 59%. Moreover, in data set [16], the fold induction at 1 µM was 17.

With `Cn1c(N)nc2cc(-c3cn(Cc4ccc(-c5nnc(C(F)F)o5)cn4)nn3)ccc21` [Compd. 17, 5-(1-((5-(5-(difluoromethyl)-1,3,4-oxadiazol-2-yl)pyridin-2-yl)methyl)-1H-1,2,3-triazol-4-yl)-1-methyl-1H-benzo[d]imidazol-2-amine], the concentration for half-maximal inhibition (IC50) in [1] was > 30 µM; in data set [2], > 200 µM; in data set [3], > 30 µM; in data set [5], > 30 µM; in data set [7], > 30 µM; in [8], 0.008 µM. The IC50 in data set [9] was > 30 µM; in data set [10] it was > 30 µM; in [11] it was > 30 µM; in data set [12], > 200 µM; in [14], > 30 µM. For the same compound, the “residual percentage in RAT PLASMA” value in data set [4] was determined as 85%. Also, the “residual percentage in RAT S9 FRACTION” value in data set [6] is 99%. Also, in data set [13], the “residual percentage in HUMAN S9 FRACTION” value is listed as 84%. Further, in [15], the “residual percentage in HUMAN PLASMA” value is on record as 82%. The fold induction at 1 µM in [16] worked out at 32.
